Here are results for 17 molecules from patent US20040204417A1, “Novel benzothienyl or indole derivatives, preparation and use thereof as inhibitors of prenyl transferase proteins” (priority 2001, published 2004).

Each structure is given as a SMILES string.

Experiment [1] deals with T1, protein farnesyl transferase (Bos taurus, UniProt P29702+P49355).
T1 construct: partially purified from bovine brain by ion-exchange chromatography; from tissue; host or cells: bovine brain
The experiment can be described thus: Evaluation of the inhibition of protein farnesyl transferase (dansyl-GCVLS fluorescence). In kind it is biochemical, bovine. Conditions: read-out: IC50 PFTase. The procedure: A) Evaluation of the inhibition of protein farnesyl transferase
The farnesylation of the dansylated peptide GCVLS, catalyzed with the enzyme protein farnesyl transferase, results in a change in the emission spectrum of the dansyl group, and especially an increase in the emission at 505 nm when the molecule is excited at 340 nm. When measured using the spectrofluorimeter, this emission is proportional to the activity of the enzyme (Pompliano et al., J. Am. Chem. Soc. 1992; 114: 7945-7946).
55 mM TRIS/HCl pH 7.5; 5.5 mM DTT; 5.5 mM MgCl2; 110 μM ZnCl2, 0.22% B-octyl-B D-glucopyrannoside.
Farnesyl pyrophosphate (FPP), (Sigma)
Dansylated peptide dansyl-GCVLS (Neosystem/Strasbourg, France)
The protein farnesyl transferase is partially purified from bovine brain by ion-exchange chromatography on Q-sepharose (Pharmacia) (Moores et al., J. Biol. Chem. 1991, 266: 14603-14610, Reiss et al., Cell 1990, 62: 81-88).
The reaction mixture containing 2 μM of FPP, 2 μM of dansyl GCVLS with or without (zero) the amount of enzyme giving an intensity of 100 on the spectrofluorimeter after incubation for 10 minutes at 37° C., is prepared on ice.
In an Eppendorf tube, 360 μl of reaction mixture are mixed with 40 μl of 10× concentrated test product or of solvent, and incubated for 10 minutes at 37° C. The reaction is quenched on ice and the fluorescence intensity is measured (excitation at 340 nm, 4 nm slit, emission at 505 nm, 10 nm slit). The tests are performed in duplicate. The results are expressed as a percentage of inhibition. Under these conditions, the derivatives of the present invention were identified as powerful inhibitors of protein farnesyl transferase (IC50<10 μM).
Adaptation of the method to a 96-wellformat:
The procedure is similar to that above, except that the measurements are performed in a “Black Fluorotrack 200” 96-well device (Greiner, Poitiers, France) and the readings are performed using a “Spectrametrix Gemini” 96-well fluorimeter (Molecular Devices, Sunnyvale, Calif., USA)

In experiment [2] the target is T2, GGPT I (Bos taurus, UniProt P29702+Q5EAD5).
T2 construct: GGPT I is partially purified from bovine brain by ion-exchange chromatography; from tissue; host or cells: bovine brain
The experiment in a line: Evaluation of the inhibition of geranyl geranyl transferase protein I (3H-GGPP incorporation into RhoA-GST). In kind it is biochemical, bovine. Particulars: read-out: IC50 PGGTase. The procedure: B) Evaluation of the inhibition of geranyl geraryl transferase protein I:
55 mM TRIS/HCl pH 7.5; 5.5 mM DTT; 5.5 mM MgCl2; 110 μM ZnCl2, 0.22% N-octyl-B D-glucopyrannoside.
^3H-geranylgeranyl pyrophosphate (GGPP), 66 μM, 15 CI/mmol, (Isotopchim)
Rho-GST recombinant protein
GGPT I is partially purified from bovine brain by ion-exchange chromatography on Q-sepharose (Pharmacia); elution at 0.23 and 0.4 M NaCl, respectively.
The reaction mixture containing 0.2 μM of ^3H-GGPP, 1 μM of RhoA-GST with or without (zero) 5 μl of GGPT/test, is prepared on ice.
In an Eppendorf tube, 45 μl of reaction mixture are mixed with 5 μl of 10× concentrated test product or of solvent, and incubated for 45 minutes at 37° C. A 45 μl aliquot is placed on a phosphocellulose P81 filter (Whatman, Maidstone, UK) numbered, washed with 50% ethanol, phosphoric acid (0.5%) and counted by scintillation.
The tests are performed in duplicate. The results are expressed as a percentage of inhibition.
Adaptation of the method to a 96-wellformat
The procedure is similar to that above, except that the measurements are performed in 96-well plates (Nunc, France) and the reactions are then passed through a 96-well “Unifilter” (Whatman, Maidstone, UK) containing a phosphocellulose P81 buffer using a “Filtermate 196” system (Packard, France).
After washing with 50% ethanol and phosphoric acid (0.5%), the filters are counted by scintillation on a “Packard Topcount” instrument.
The tests are performed in triplicate. The results are expressed as a percentage of inhibition.

On to `N#Cc1ccc(Cn2cncc2CN(C(=O)c2ccccc2)c2ccc3[nH]c(C(=O)N4CCCCC4)c(-c4ccccc4)c3c2)cc1` [Example 164, N-[3-(4-Cyanobenzyl)-3H-imidazol-4-ylmethyl]-N-[3-phenyl-2-(piperidine-1-carbonyl)-1H-indol-5-yl]benzamide], for which the IC50 came out at 8 nM in experiment [1] and 20 nM in experiment [2].
On to `CCCCN(Cc1cncn1Cc1ccc(C#N)cc1)c1ccc2sc(C(=O)N3CCSCC3)cc2c1` [Example 113, 4-[5-({Butyl[2-(thiomorpholine-4-carbonyl)benzo[b]thiophen-5-yl]amino}methyl)imidazol-1-ylmethyl]benzonitrile], for which the concentration for half-maximal inhibition (IC50) in experiment [1] is 8 nM.
On to `N#Cc1ccc(Cn2cncc2CN(C(=O)C2CCCCC2)c2ccc3[nH]c(C(=O)N4CCCCC4)c(-c4ccccc4)c3c2)cc1` [Example 167, Cyclohexanecarboxylic-[3-(4-cyanobenzyl)-3H-imidazol-4-ylmethyl]-[3-phenyl-2-(piperidine-1-carbonyl)-1H-indol-5-yl]amide acid], for which the IC50 in experiment [1] came out at 400 nM; in experiment [2], 7 nM.
In the same order, the values of `N#Cc1ccc(Cn2cncc2CN(C(=O)c2ccccc2)c2ccc3[nH]c(C(=O)N4CCSCC4)c(-c4ccccc4)c3c2)cc1` [Example 165, N-[3-(4-Cyanobenzyl)-3H-imidazol-4-ylmethyl]-N-[3-phenyl-2-(thiomorpholine-4-carbonyl)-1H-indol-5-yl]benzamide] are 10 nM and 60 nM.
In the same order, the values of `CC(C)C[C@H](NC(=O)c1cc2c(NCc3cncn3Cc3ccc(C#N)cc3)cccc2s1)C(=O)O` [Example 28, (2S)-2-[(4-{[3-(4-cyanobenzyl)-3H-imidazol-4-ylmethyl]amino}benzo[b]thiophene-2-carbonyl)amino]-4-methylpentanoic acid] are 4 nM and 10 nM.
Consider `N#Cc1ccc(Cn2cncc2CN(C(=O)c2cccc(F)c2)c2ccc3sc(C(=O)N4CCSCC4)cc3c2)cc1` [Example 97, N-[3-(4-Cyanobenzyl)-3H-imidazol-4-ylmethyl]-N-[2-(thiomorpholine-4-carbonyl)benzo[b]thiophen-5-yl]-3-fluorobenzamide], for which the 50% inhibitory concentration (IC50) in experiment [1] was determined as 1 nM.
Same read-out and setting: the figure for `N#Cc1ccc(Cn2cncc2CN(C(=O)c2cccs2)c2ccc3sc(C(=O)N4CCSCC4)cc3c2)cc1` [Example 91, N-[3-(4-Cyanobenzyl)-3H-imidazol-4-ylmethyl]-N-[2-(thiomorpholine-4-carbonyl)benzo[b]thiophen-5-yl]thiophene-2-carboxamide] is 2 nM.
Still for that read-out and setting: the figure for `CSCC[C@H](NC(=O)c1cc2c(N(Cc3cncn3Cc3ccc(C#N)cc3)S(=O)(=O)c3ccccc3)cccc2s1)C(=O)O` [Example 30, (2S)-2-[(4-{benzenesulfonyl-[3-(4-cyanobenzyl)-3H-imidazol-4-ylmethyl]amino}benzo[b]thiophene-2-carbonyl)amino]-4-(methylsulfanyl)butyric acid] is 6 nM; for `N#Cc1ccc(Cn2cncc2CN(C(=O)Cc2ccccc2)c2ccc3sc(C(=O)N4CCSCC4)cc3c2)cc1` [Example 100, N-[3-(4-Cyanobenzyl)-3H-imidazol-4-ylmethyl]-N-[2-(thiomorpholine-4-carbonyl)benzo[b]thiophen-5-yl]-2-phenylacetamide] it is 6 nM.
The same measure, in the same setting: then `CCOC(=O)c1cc2cc(NCc3cncn3Cc3ccc(C#N)cc3)ccc2s1` [Example 34, Ethyl 5-{[3-(4-cyanobenzyl)-3H-imidazol-4-ylmethyl]amino}benzo[b]thiophene-2-carboxylate], with 10 nM.
Turning to `CCCCNC(=O)c1cc2cc(N(Cc3cncn3Cc3ccc(C#N)cc3)S(=O)(=O)c3ccccc3)ccc2s1` [Example 57, N-Butyl-5-{benzenesulfonyl-[3-(4-cyanobenzyl)-3H-imidazol-4-ylmethyl]amino}benzo[b]thiophene-2-carboxamide], the IC50 in experiment [1] worked out at 3 nM.
In the case of `CC(C)C[C@H](NC(=O)c1cc2cc(N(Cc3cncn3Cc3ccc(C#N)cc3)S(=O)(=O)c3ccccc3)ccc2s1)C(=O)O` [Example 33, (2S)-2-[(5-{benzenesulfonyl-[3-(4-cyanobenzyl)-3H-imidazol-4-ylmethyl]amino}benzo[b]thiophene-2-carbonyl)amino]-4-methylpentanoic acid], the half-inhibitory concentration (IC50) was determined as 6 nM in experiment [1] and 70 nM in experiment [2].
As for `CCCC(=O)N(Cc1cncn1Cc1ccc(C#N)cc1)c1ccc2sc(C(=O)N3CCSCC3)cc2c1` [Example 92, N-[3-(4-Cyanobenzyl)-3H-imidazol-4-ylmethyl]-N-[2-(thiomorpholine-4-carbonyl)benzo[b]thiophen-5-yl]butyramide], in experiment [1], the IC50 amounted to 2 nM.
Same read-out and setting: then `COC(=O)[C@H](CCSC)NC(=O)c1cc2cc(N(Cc3cncn3Cc3ccc(C#N)cc3)S(=O)(=O)c3ccccc3)ccc2s1` [Example 40], with 2 nM.
For the molecule `N#Cc1ccc(Cn2cncc2CN(c2ccc3sc(C(=O)NCc4cccs4)cc3c2)S(=O)(=O)c2ccccc2)cc1` [Example 46, N-(Thiophen-2-ylmethyl)-5-{benzenesulfonyl-[3-(4-cyanobenzyl)-3H-imidazol-4-ylmethyl]amino}benzo[b]thiophene-2-carboxamide], the concentration for half-maximal inhibition (IC50) in experiment [1] came out at 1 nM.
For `N#Cc1ccc(Cn2cncc2CN(C(=O)C2CCCCC2)c2ccc3sc(C(=O)N4CCSCC4)cc3c2)cc1` [Example 101, N-[3-(4-Cyanobenzyl)-3H-imidazol-4-ylmethyl]-N-[2-(thiomorpholine-4-carbonyl)benzo[b]thiophen-5-yl]cyclohexanecarboxamide], the half-inhibitory concentration (IC50) in experiment [1] came out at 5 nM.
On the same count and under the same terms, the figure for `N#Cc1ccc(Cn2cncc2CN(c2ccc3sc(C(=O)NC4CCCC4)cc3c2)S(=O)(=O)c2ccccc2)cc1` [Example 55, N-Cyclopentyl-5-{benzenesulfonyl-[3-(4-cyanobenzyl)-3H-imidazol-4-ylmethyl]amino}benzo[b]thiophene-2-carboxamide] is 3 nM.
